The target of data set [1] is T1, P2X purinoceptor 7 (Homo sapiens, UniProt Q99572).
T1 sequence (Q99572 whole entry): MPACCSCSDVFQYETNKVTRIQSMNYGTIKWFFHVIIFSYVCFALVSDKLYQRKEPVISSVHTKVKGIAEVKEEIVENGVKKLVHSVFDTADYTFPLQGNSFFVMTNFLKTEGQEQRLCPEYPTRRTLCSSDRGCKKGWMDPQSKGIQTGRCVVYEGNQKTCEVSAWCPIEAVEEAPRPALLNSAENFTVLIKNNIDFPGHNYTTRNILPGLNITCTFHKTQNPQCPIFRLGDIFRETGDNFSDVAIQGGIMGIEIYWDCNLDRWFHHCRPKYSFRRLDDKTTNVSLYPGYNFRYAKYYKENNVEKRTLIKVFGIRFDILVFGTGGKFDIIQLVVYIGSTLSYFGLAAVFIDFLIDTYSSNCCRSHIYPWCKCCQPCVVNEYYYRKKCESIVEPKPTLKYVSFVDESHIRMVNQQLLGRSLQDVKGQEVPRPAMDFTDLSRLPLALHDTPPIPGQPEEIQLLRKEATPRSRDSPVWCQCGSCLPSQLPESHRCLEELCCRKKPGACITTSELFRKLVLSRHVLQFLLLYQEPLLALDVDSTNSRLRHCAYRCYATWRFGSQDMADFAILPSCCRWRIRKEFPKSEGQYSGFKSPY
As to the kind of experiment: Antagonist activity at human recombinant P2X7 receptor expressed in HEK293 cells assessed as inhibition of ATP-induced calcium mobilization incubated for 90 mins in presence of ATP by YO-PRO-1 dye based tetra FLIPR assay. In kind it is cell-based. (Calcium flux is commonly read through the fluorescence of an indicator in the cells.)

Data set [2] addresses T1, P2X purinoceptor 7. The data set is described as follows: Antagonist activity at human recombinant P2X7 receptor expressed in 1321N1 cells assessed as inhibition of BzATP-induced calcium mobilization incubated for 30 mins measured after 180 seconds by calcium-4 dye based FLIPR assay. Format: cell-based.
A short description of data set [3]: Fraction unbound in human plasma. In kind it is ADME, cell-free.
The target of data set [4] is T1, P2X purinoceptor 7. As to the kind of experiment: Antagonist activity at human P2X7 receptor expressed in HEK293 cells assessed as inhibition of BzATP-induced pore formation incubated for 20 mins followed by stimulation with BzATP for 30 mins by YO-PRO dye based fluorescence plate reader method. Format: cell-based.
Data set [5] addresses T1, P2X purinoceptor 7. As to the kind of experiment: Antagonist activity at human P2X7 receptor expressed in THP1 cells assessed as inhibition of BzATP-induced IL-1beta release preincubated for 20 mins followed by stimulation with BzATP for 30 mins by sandwich ELISA. Format: cell-based.
Data set [6] can be described thus: Efflux ratio of apparent permeability from basolateral to apical over apical to basolateral side in human Caco2 cells at 10 uM after 40 to 60 mins by LC-MS/MS analysis. In kind it is ADME, cell-based. The conditions noted are these: Caco-2.
In data set [7] the test system is Rattus norvegicus. As to the kind of experiment: Ex vivo inhibition of P2X7 in po dosed rat measured after 1 to 2 hrs by ARG assay. In kind it is functional, organism-based.
Data set [8] can be described thus: Oral bioavailability in dog at 2.5 mg/kg. In kind it is ADME, organism-based, Canis lupus familiaris. Conditions: in vivo.
The next data set addresses Cytochrome P450 3A4 (Homo sapiens, UniProt P08684). The data set is described as follows: Inhibition of CYP3A4 (unknown origin). Format: ADME.
Data set [9] is described as follows: Cmax in dog at 2.5 mg/kg, po. Format: ADME, organism-based, Canis lupus familiaris. On the set-up: dose 2.5 mg/kg, route oral. The conditions noted are these: in vivo.
The target in data set [10] is T1, P2X purinoceptor 7. The data set is described as follows: Antagonist activity at human P2X7 receptor expressed in HEK293 cells assessed as inhibition of BzATP-induced calcium mobilization monitored for 5 mins followed by stimulation with BzATP measured after 3 mins by Fluo-8 NW dye based tetra FLIPR assay. Format: cell-based.
The target of data set [11] is T2, P2X purinoceptor 7 (Rattus norvegicus, UniProt Q64663).
T2 sequence (Q64663 whole entry): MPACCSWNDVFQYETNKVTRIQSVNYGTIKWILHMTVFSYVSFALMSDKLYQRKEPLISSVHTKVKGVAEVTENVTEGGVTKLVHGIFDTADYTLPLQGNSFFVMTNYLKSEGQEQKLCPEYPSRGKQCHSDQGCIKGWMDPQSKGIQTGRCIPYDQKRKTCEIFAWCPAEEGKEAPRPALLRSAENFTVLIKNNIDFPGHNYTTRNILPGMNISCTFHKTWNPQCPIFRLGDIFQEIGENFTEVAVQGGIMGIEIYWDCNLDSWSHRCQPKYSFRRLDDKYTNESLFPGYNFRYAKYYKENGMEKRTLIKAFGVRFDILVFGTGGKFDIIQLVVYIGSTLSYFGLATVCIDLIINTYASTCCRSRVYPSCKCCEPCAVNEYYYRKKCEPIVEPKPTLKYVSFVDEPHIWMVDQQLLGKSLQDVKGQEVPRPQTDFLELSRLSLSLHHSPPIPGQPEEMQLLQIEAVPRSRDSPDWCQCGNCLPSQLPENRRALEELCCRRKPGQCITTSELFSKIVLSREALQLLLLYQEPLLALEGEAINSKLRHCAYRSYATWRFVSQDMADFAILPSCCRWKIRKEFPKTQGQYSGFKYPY
The data set is described as follows: Antagonist activity at rat P2X7 receptor expressed in 1321N1 cells assessed as inhibition of BzATP-induced calcium mobilization incubated for 30 mins measured after 180 seconds by calcium-4 dye based FLIPR assay. Format: cell-based.

Data set [12] can be described thus: Fraction unbound in rat plasma. In kind it is ADME, cell-free.
Data set [13] deals with T1, P2X purinoceptor 7. As to the kind of experiment: Antagonist activity at human P2X7 receptor expressed in HEK293 cells assessed as inhibition of BzATP-induced calcium mobilization incubated for 30 mins by Fluo-4 NW dye based tetra FLIPR assay. In kind it is cell-based.
Data set [14] is described as follows: Oral bioavailability in rat at 10 mg/kg. Format: ADME, organism-based. Conditions: in vivo.
Data set [15] has as its system Rattus norvegicus. The data set is described as follows: Ex vivo receptor occupancy at P2X7 receptor in rat at 10 mg/kg, po. Format: functional.
Data set [16] in a line: Ratio of drug level in brain to plasma in rat at 10 mg/kg, po. In kind it is ADME, organism-based. Conditions: read-out: BPR.

Each structure is given as a SMILES string.

Cytochrome P450 3A4, sequence (P08684 whole entry): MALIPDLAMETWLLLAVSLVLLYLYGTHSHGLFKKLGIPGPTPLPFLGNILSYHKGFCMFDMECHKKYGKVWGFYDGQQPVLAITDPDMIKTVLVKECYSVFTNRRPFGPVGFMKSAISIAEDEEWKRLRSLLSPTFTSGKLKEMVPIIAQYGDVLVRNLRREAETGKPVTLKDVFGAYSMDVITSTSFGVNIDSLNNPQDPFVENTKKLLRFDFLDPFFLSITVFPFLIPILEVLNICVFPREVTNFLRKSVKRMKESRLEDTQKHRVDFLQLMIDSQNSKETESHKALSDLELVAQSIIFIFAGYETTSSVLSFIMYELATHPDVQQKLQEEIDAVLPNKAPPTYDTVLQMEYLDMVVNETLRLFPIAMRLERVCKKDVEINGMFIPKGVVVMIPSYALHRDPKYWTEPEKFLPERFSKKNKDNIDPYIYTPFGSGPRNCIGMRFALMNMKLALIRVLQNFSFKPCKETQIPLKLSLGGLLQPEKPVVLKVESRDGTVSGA

In general, IC50 refers to the concentration at which inhibition is half-maximal. For `O=C(NCC(c1cnc(C(F)(F)F)nc1)N1CCOCC1)c1c(Cl)ccc2[nH]ccc12` (stereo not drawn), the IC50 on P2X purinoceptor 7 [1] was 3.9 nM.

One may read the fraction unbound as free concentration divided by total concentration. A lower fraction unbound goes with little free substance. Consider `Cc1nc2c(c(-c3ccccc3)n1)CCN(C(=O)c1cccc(C(F)(F)F)c1Cl)C2`, for which, on P2X purinoceptor 7 [2], the IC50 came to 240 nM. In addition, the fraction unbound in data set [3] was 0.032.

For `C[C@H]1CC[C@@](O)(CNC(=O)c2cc(C3CCOC3)n3cccc(Cl)c23)CC1` (stereo partly drawn), the IC50 on P2X purinoceptor 7 [4] and at P2X purinoceptor 7 [5] was less than 10 nM throughout.

For orientation: efflux ratio means the permeability from basolateral to apical divided by that in the opposite direction, in the common usage. As for `CCc1nnc2n1CCN(C(=O)c1cccc(C(F)(F)F)c1Cl)[C@@H]2c1ccccc1`, the 50% inhibitory concentration (IC50) at P2X purinoceptor 7 [2] came to 2.4 nM. Also, the efflux ratio at 10 µM in [6] turned out to be 3.24.

A word on the EC50: it is the concentration that produces a half-maximal response. In general, bioavailability refers to dose-corrected exposure relative to a reference, in per cent. High values mean good availability, low ones poor availability. What is called Cmax is the highest concentration seen after dosing. Take `Cc1nc2c(c(-c3ccn[nH]3)n1)C[C@@H](C)N(C(=O)c1cccc(C(F)(F)F)c1Cl)C2`: a half-maximal response in the data set with Rattus norvegicus [7] (EC50) required 8 nM. In data set [8], this molecule registered a bioavailability of 35%. The same molecule registered an IC50 against Cytochrome P450 3A4 of 3300 nM. Further, in data set [9], the peak concentration (Cmax) turned out to be 571 nM.

As for `O=C(NCC(CC1(C(F)F)CC1)c1ccc(C2CC2)nc1)c1cccc(Cl)c1Cl` (stereo not drawn), the concentration for half-maximal inhibition (IC50) on P2X purinoceptor 7 [10] was found to be 0.79 nM.

For `O=C(NCC1(c2ccc(Cl)nc2)CCCCC1)C1CCCc2[nH]ccc21` (stereo not drawn), the IC50 at P2X purinoceptor 7 [1] turned out to be 3.4 nM.

For the molecule `O=C(c1cccc(C(F)(F)F)c1Cl)N1CCn2c(C3CC3)nnc2[C@H]1c1ccccc1`, the IC50 is 6.9 nM at P2X purinoceptor 7 [2] and 17 nM at P2X purinoceptor 7 [11]. Moreover, in data set [6], the efflux ratio at 10 µM is 3.33.

For `CN(C)C(=O)CCNc1ccc2c(C(=O)NCC3CCC(F)(F)CC3)c(Cl)ccc2n1`, the concentration for half-maximal inhibition (IC50) on P2X purinoceptor 7 [4] and at P2X purinoceptor 7 [5] was less than 10 nM each time.

Regarding `O=C(c1cccc(C(F)(F)F)c1Cl)N1CCn2cnnc2[C@H]1c1ccccc1`, the figures for the IC50 on P2X purinoceptor 7 [2] and on P2X purinoceptor 7 [11] were 4.5 nM and 64 nM, respectively. Also, in [6], the efflux ratio at 10 µM amounted to 4.5.

In the data set on Rattus norvegicus [7], `Cc1nc2c(c(-c3ccn[nH]3)n1)C[C@@H](C)N(C(=O)c1ccc(Cl)cc1F)C2` displayed an EC50 of 100 nM. For the same molecule, the values for the IC50 at P2X purinoceptor 7 [2] and at Cytochrome P450 3A4 were 19 nM and more than 10000 nM, respectively.

As to `O=C(NCC1(c2ccc(Cl)nc2)CCCCC1)c1c(Cl)ccc2[nH]ccc12`, the concentration for half-maximal inhibition (IC50) on P2X purinoceptor 7 [1] was determined as 3.2 nM.

Turning to `CCCCc1nnc2n1CCN(C(=O)c1cccc(C(F)(F)F)c1Cl)[C@@H]2c1ccccc1`, the figures for the IC50 on P2X purinoceptor 7 [2] and on P2X purinoceptor 7 [11] were 8.5 nM and 20 nM, respectively. Besides, the efflux ratio at 10 µM in data set [6] was 1.22.

Take `Cc1nc2c(c(-c3ccn[nH]3)n1)CCN(C(=O)c1cccc(C(F)(F)F)c1Cl)C2`: the fraction unbound in [12] turned out to be 0.074. The IC50 on P2X purinoceptor 7 [2] worked out at 8.5 nM; on P2X purinoceptor 7 [11], 1140 nM.

As for `Cc1ncc(C(CNC(=O)c2cc(-c3ncc(F)cn3)ccc2Cl)N2CCCC(F)(F)C2)s1` (stereo not drawn), the IC50 at P2X purinoceptor 7 [13] is 22 nM.

As to `Cc1nnc2n1CCN(C(=O)c1cccc(C(F)(F)F)c1Cl)[C@@H]2c1ccccc1`, the IC50 on P2X purinoceptor 7 [2] came to 2.7 nM; at P2X purinoceptor 7 [11], 27 nM. Also, the efflux ratio at 10 µM in [6] is 5.1.

For `CC(C)(C)c1nnc2n1CCN(C(=O)c1cccc(C(F)(F)F)c1Cl)[C@@H]2c1ccccc1`, at P2X purinoceptor 7 [2], the IC50 is 11 nM. For the same molecule, the efflux ratio at 10 µM in data set [6] came out at 2.

As for `O=C(c1cccc(C(F)(F)F)c1Cl)N1CCn2c(nnc2C(F)(F)F)[C@H]1c1ccccc1`, the results for the IC50 on P2X purinoceptor 7 [2] and at P2X purinoceptor 7 [11] were 8.7 nM and 42 nM, respectively. In data set [14], the bioavailability amounted to 78%. Besides, the Occ with Rattus norvegicus [15] is given as more than 80%. Moreover, the Kp in data set [16] came out at 0.5. In addition, the efflux ratio at 10 µM in data set [6] worked out at 0.75.

Source of the values: ChEMBL document CHEMBL4425156, “The evolution of P2X7 antagonists with a focus on CNS indications” (Bioorg Med Chem Lett, 2016).
